Read-outs that look alike come from different tables or passages of the source.

For this data set the following is noted: amide bond, NaHCO3, CH2Cl2, 72.0 h, 2 steps.

Molecule `CC(C)[C@@H]1NC(=O)CNC(=O)COc2ccc(cc2)C[C@@H](C(O)C(F)(F)C(=O)NCc2ccccc2)NC1=O` (some centres unmarked) yielded a ring closure, yield of all isomers (from CC(C)[C@H](NC(=O)CNC(=O)OC(C)(C)C)C(=O)N[C@@H](Cc1ccc(OCC(=O)Oc2c(F)c(F)c(F)c(F)c2F)cc1)C(O)C(F)(F)C(=O)NCc1ccccc1) of 78.7%.

Under “from CC(C)[C@H](COCc1ccccc1)NC(=O)C(F)(F)C(O)[C@H](Cc1ccc(OCC(=O)Oc2c(F)c(F)c(F)c(F)c2F)cc1)NC(=O)[C@@H](NC(=O)CNC(=O)OC(C)(C)C)C(C)C, 1.69 mM”, `CC(C)[C@H](COCc1ccccc1)NC(=O)C(F)(F)[C@H](O)[C@@H]1Cc2ccc(cc2)OCC(=O)NCC(=O)N[C@@H](C(C)C)C(=O)N1` displayed a ring closure, yield of all isomers of 8%.

Source of the values: patent US5969132.
